Laboratory results published in patent publication US9668948B2, “Products and methods for reducing malodor from the pudendum” (priority 2009, dated 2017).

Experiments:
[1] = 1 gram in ... ml of water; 25° C.; cited from earlier work
[2] = system: Clostridium sporogenes; assay: Suppression of trimethylamine (TMA) formation from choline by bacterial culture, headspace GC/FID; assay type: cell-based; settings: added to the culture solution (internal standard mix)
Procedure: A viable method was developed for the assay of trimethylamine (TMA). The method utilizes triethylamine and methanol together as internal standards and choline as the substrate for generating TMA from the bacterial species. The bacterial culture for these studies was Clostridium sporogenes, which was grown in house at BioScreen.
Tests were conducted with a headspace gas chromatograph to verify that Clostridium sporogenes bacterial could actively generating trimethylamine from a choline substrate.
Equipment for the testing included a Trace GC Ultra gas chormoatograph and a Varian CP-Volamine column. An FID detector was used with 2.5 mL/min helium flow.
The bacterial species C. sporogenes, a species found in the lower GI tract. was inoculated into 100 mL of Fluid Thioglycolate medium and incubated at 35±2° C. for a minimum of 16 hours. At the end of incubation, the concentration of the bacterial suspension was confirmed by serial dilution in 9 mL PBS up to 10^−7 and anaerobic incubation at 32.5±2.5° C. for a minimum of 48 hours. Counts were recorded from dilution plates with 25 to 250 colonies. The average counts were multiplied by the reciprocal of the dilution factor to furnish the CFU/mL of the bacterial species. […]

Molecule	solubility in water: ml of water for 1 gram [1]	effect on reactivity of the bacterial culture with choline [2]
O=C(O)C(O)c1ccccc1 (centres unmarked) [mandelic acid]	6.3 mL	
benzalkonium chloride		stops further reactivity
